Where two headings read alike, the source gives them in different places.
What was measured:
Recombinant human SPSB2 = target: T1, Recombinant human SPSB2 (Homo sapiens, UniProt Q99619); assay: Surface plasmon resonance (SPR) binding to immobilized hSPSB2; conditions: for Kd: hSPSB2, mean ± SEM of three independent experiments; for fold improved binding affinity compared to disulfide-bridged peptide 24: hSPSB2, versus 24; for fold loss of binding for the minor diastereomer: SPR KD, hSPSB2, minor versus major diastereomer
T1 construct: purchased Abcam ab134592
T1 sequence (Q99619 1-263): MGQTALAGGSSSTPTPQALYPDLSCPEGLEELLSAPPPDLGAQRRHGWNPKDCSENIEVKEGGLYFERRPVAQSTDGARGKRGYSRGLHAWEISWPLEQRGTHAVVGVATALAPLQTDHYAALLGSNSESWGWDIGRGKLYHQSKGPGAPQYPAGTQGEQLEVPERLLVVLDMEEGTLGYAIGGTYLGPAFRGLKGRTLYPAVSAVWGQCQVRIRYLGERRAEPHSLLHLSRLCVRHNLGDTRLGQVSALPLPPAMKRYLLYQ
Protocol: Example sensorgrams for selected PepNats D1−D4, D7, D8, D10, D12 and D18 interacting with immobilized hSPSB2 using SPR (red). Each PepNat was injected at 0.020 µM, 0.078 µM, 0.313 µM, 1.25 µM and 5 µM concentration in quick succession followed by a longer dissociation time. A binding kinetic model was fitted to each experimental trace (black). All experiments were conducted in triplicates. […]
to the elution profile of the crude product . The relevant fractions containing the desired product were collected, analyzed by RP-HPLC-MS and accordingly pooled and lyophilized.
HRMS were obtained on a Thermo Scientific LTQ Fleet Orbitrap mass spectrometer coupled to an Accela HPLC-System (HPLC column: Hypersyl GOLD, 50 mm x 1 mm, particle size 1.9 μm) equipped with an electron spray ionization source (ESI). The mass detection was recorded in the range of […]
2) B) Biochemical Assays Materials and Methods
Surface Plasmon Resonance (SPR)
All SPR experiments were conducted on a Biacore T200, S200 or 8K instrument (GE Healthcare) at 20 °C using HBS-P+ as running buffer (GE Healthcare). A CM5 sensor chip (GE Healthcare) was conditioned three times at 60 s using 50 mM NaOH, 1 M NaCl prior to standard NHS/EDC activation (e.g. amine coupling in the Biacore instruction manual) of the sensor surface for 420 s.
Recombinant human SPSB2 (product ID: ab134592, Abcam, Cambridge, UK) was diluted to 200 nM using 10 mM Sodium acetate pH 5. 5 and injected over the activated surface for 300 s. This surface and a surface subjected to only NHS/EDC activation were deactivated using 100 mM Tris -HCl, pH 8.0. The empty surface was used as a reference surface.
All PepNat and peptide reference interac tion experiments were conducted by diluting 10 mM DMSO stocks of PepNats and peptide references using digital dispensing (Tecan) to 10 µM, 2.5 µM, 625 nM, 156 nM and 40 nM or 1 µM, 250 nM, 63 nM, 16 nM and 4 nM. All concentrations were serially injected ov er both the SPSB2 containing - and empty surfaces using single -cycle kinetics (GE Healthcare). The resulting sensorgrams were reference - and blank subtracted prior to fitting of the data using a binding kinetic model (Biacore evaluation software).
DNA constructs, cell culturing, transfections and generation of stable cell lines DNA constructs and cell lines were employed as previously described by Durek et al.7 “cDNAs encoding human MC1 (Genbank accession number NM_002386), MC3 (NM_019888), and MC4 (NM_005912) and MC5 (NM_005913) were cloned into the pcDNA4/TO vector (ThermoFisher). In the constructs, a consensus Kozak sequence (GCCACC) was incorporated immediately before the start ATG. DNA was amplified, isolated and sequenced using standard techniques.
T-Rex™-293 cells (ThermoFisher) were cultured in DMEM medium, supplemented with 10% foetal bovine serum and 5 µg/ml blasticidin at 37°C in a humidified atmosphere with 10% CO2.
Lipofectamine 2000 (ThermoFisher) was used for transfections according to the manufacturer’s recommendations. Resistant polyclonal populations were generated by selection with Zeocin (0.3 mg/ml, ThermoFisher) for about two weeks after transfection. Individual clones were iso lated using flow cytometry, subsequently expanded, tested for responsiveness to [Nle 4, DPhe7]-α-Melanocyte Stimulating Hormone (NDP-α-MSH) and cryopreserved.” To induce receptor

[1] = the molecule shown is the open-chain precursor, other bond, 37-membered ring, CH(OMe)3/Et3N, DMF, THF, resin, 25.0 °C, with chain assembly
[2] = the molecule shown is the open-chain precursor, amine bond, 37-membered ring, then NaBH3CN, DMF, resin, 25.0 °C

Compound: CC[C@H](C)[C@@H]1NC(=O)[C@H](CC(=O)O)NC(=O)[C@H](Cc2ccccc2)N(C)C(=O)[C@H]2N[C@@H](c3ccc(cc3)C(=O)NCCCC[C@@H](C(=O)NCC(N)=O)NC(=O)[C@H](CC(N)=O)NC(=O)[C@H](CC(N)=O)NC(=O)[C@H](CC(N)=O)NC1=O)[C@@H](C(=O)OC)[C@H]2C(=O)OC [D4-minor, [IV-FDINNNK ]G]
- binding to SPSB2 (in words) (Recombinant human SPSB2; SPR, hSPSB2): did not bind
- Kd (Recombinant human SPSB2; SPR): > 10000 nM

Compound: CC[C@H](C)[C@@H]1NC(=O)[C@H](CC(=O)O)NC(=O)[C@H](Cc2ccccc2)N(C)C(=O)[C@@H]2N[C@H](c3ccc(cc3)C(=O)NCCCC[C@@H](C(=O)NCC(N)=O)NC(=O)[C@H](CC(N)=O)NC(=O)[C@H](CC(N)=O)NC(=O)[C@H](CC(N)=O)NC1=O)C1(C(=O)N(C)C(=O)N(C)C1=O)[C@H]2c1ccccc1 [D7-major, [VII-FDINNNK ]G]
- fold improved binding affinity compared to disulfide-bridged peptide 24 (Recombinant human SPSB2; ratio of SPR KD): 4 fold
- fold higher affinity compared to ortho ether aromatic unit analogue 26 (Recombinant human SPSB2; ratio of SPR KD, hSPSB2, versus 26): 46 fold

Compound: CC[C@H](C)[C@@H]1NC(=O)[C@H](CC(=O)O)NC(=O)[C@H](Cc2ccccc2)N(C)C(=O)[C@@H]2N[C@H](c3ccc(cc3)C(=O)NCCC[C@@H](C(=O)NCC(N)=O)NC(=O)[C@H](CC(N)=O)NC(=O)[C@H](CC(N)=O)NC(=O)[C@H](CC(N)=O)NC1=O)[C@@H]1C(=O)N(C)C(=O)[C@@H]12 [D8-major, [I-FDINNNOrn ]G]
- Kd (Recombinant human SPSB2; SPR): 282 ± 93 nM

Compound: CC[C@H](C)[C@@H]1NC(=O)[C@H](CC(=O)O)NC(=O)[C@H](Cc2ccccc2)N(C)C(=O)[C@@H]2N[C@H](c3ccc(cc3)C(=O)NCC[C@@H](C(=O)NCC(N)=O)NC(=O)[C@H](CC(N)=O)NC(=O)[C@H](CC(N)=O)NC(=O)[C@H](CC(N)=O)NC1=O)[C@@H]1C(=O)N(C)C(=O)[C@@H]12 [D9-major, [I-FDINNNDab ]G]
- Kd (Recombinant human SPSB2; SPR): 66 ± 8 nM

Compound: CC[C@H](C)[C@@H]1NC(=O)[C@H](CC(=O)O)NC(=O)[C@H](Cc2ccccc2)N(C)C(=O)[C@@H]2N[C@H](c3ccc(cc3)C(=O)NC[C@@H](C(=O)NCC(N)=O)NC(=O)[C@H](CC(N)=O)NC(=O)[C@H](CC(N)=O)NC(=O)[C@H](CC(N)=O)NC1=O)[C@@H]1C(=O)N(C)C(=O)[C@@H]12 [D10-major, [I-FDINNNDap ]G]
- Kd (Recombinant human SPSB2; SPR): 72 ± 16 nM

Compound: CC[C@H](C)[C@@H]1NC(=O)[C@H](CC(=O)O)NC(=O)[C@H](C(C)C)N(C)C(=O)[C@H]2N[C@@H](c3ccc(cc3)C(=O)NCCCC[C@@H](C(=O)NCC(N)=O)NC(=O)[C@H](CC(N)=O)NC(=O)[C@H](CC(N)=O)NC(=O)[C@H](CC(N)=O)NC1=O)[C@H]1C(=O)N(C)C(=O)[C@H]12 [D13-minor, [I-VDINNNK ]G]
- fold loss of binding for the minor diastereomer (Recombinant human SPSB2): 5 fold

Compound: CC[C@H](C)[C@@H]1NC(=O)[C@H](CC(=O)O)NC(=O)[C@@H](Cc2ccccc2)N(C)C(=O)[C@@H]2N[C@H](c3ccc(cc3)C(=O)NCCCC[C@@H](C(=O)NCC(N)=O)NC(=O)[C@H](CC(N)=O)NC(=O)[C@H](CC(N)=O)NC(=O)[C@H](CC(N)=O)NC1=O)[C@@H]1C(=O)N(C)C(=O)[C@@H]12 [D15-major, [I-fDINNNK ]G]
- Kd (Recombinant human SPSB2; SPR): > 10000 nM

Compound: CC[C@H](C)[C@@H]1NC(=O)[C@H](CC(=O)O)NC(=O)[C@H](Cc2ccccc2)N(C)C(=O)[C@@H]2N[C@H](c3ccc(cc3)C(=O)NC[C@@H](C(=O)NCC(N)=O)NC(=O)[C@H](CC(N)=O)NC(=O)[C@H](CC(N)=O)NC(=O)[C@H](CC(N)=O)NC1=O)[C@@H]1C(=O)N(c3ccccc3)C(=O)[C@@H]12 [D17-major, [II-FDINNNDap ]G]
- Kd (Recombinant human SPSB2; SPR): 1080 ± 76 nM

Compound: CC[C@H](C)[C@@H]1NC(=O)[C@H](CC(=O)O)NC(=O)[C@H](C(C)C)N(C)C(=O)[C@@H]2N[C@H](c3ccc(cc3)C(=O)NCCCC[C@@H](C(=O)NCC(N)=O)NC(=O)[C@H](CC(N)=O)NC(=O)[C@H](CC(N)=O)NC(=O)[C@H](CC(N)=O)NC1=O)[C@@H]1C(=O)N(c3ccccc3)C(=O)[C@@H]12 [D18-major, [II-VDINNNK ]G]
- fold improved binding affinity compared to disulfide-bridged peptide 24 (Recombinant human SPSB2; ratio of SPR KD): 7 fold
- fold improved binding affinity compared to cyclic peptide 25 (Recombinant human SPSB2; ratio of SPR KD, hSPSB2, versus 25): 36 fold
- fold better affinity than 27 (Recombinant human SPSB2; ratio of SPR KD, hSPSB2, versus 27): 40 fold

Compound: CC[C@H](C)[C@@H]1NC(=O)[C@H](CC(=O)O)NC(=O)[C@H](C(C)C)N(C)C(=O)[C@H]2N[C@@H](c3ccc(cc3)C(=O)NCCCC[C@@H](C(=O)NCC(N)=O)NC(=O)[C@H](CC(N)=O)NC(=O)[C@H](CC(N)=O)NC(=O)[C@H](CC(N)=O)NC1=O)[C@H]1C(=O)N(c3ccccc3)C(=O)[C@H]12 [D18-minor, [II-VDINNNK ]G]
- fold loss of binding for the minor diastereomer (Recombinant human SPSB2): 63 fold

Compound: H-Gly-MePhe-Ala-Leu-Phe-Pro-Gly-Phe-Lys(4-formylbenzoyl)-Gly-resin
- ring closure, yield after HPLC ([1]; then 10/LiBr/Et3N): 14%
- ring closure, yield after HPLC ([1]; then 11/LiBr/Et3N): 8%
- ring closure, conversion ([2]; 1% AcOH): 91%
- ring closure, conversion ([2]; 5% AcOH): 99%
- ring closure, conversion ([2]; Et3N/4A MS): 4%

— publication PMC7307906, “Macrocyclic Modalities Combining Peptide Epitopes and Natural Product Fragments” (Journal of the American Chemical Society, 2020)
